Test [1] relates to macrophages péritonéaux. As to the kind of experiment: Phagocytosis of [3H]uracil-labelled C. albicans by treated peritoneal macrophages in vitro. The conditions noted are these: effect of the PPARγ antagonist added; figure 2. It counts as cell-based, souris.
Description: Les macrophages, quant à eux, proviennent soit du péritoine de souris femelles SWISS (Centre d'élevage, Etablissement Janvier, France), soit du sang périphérique de donneurs sains. Ces macrophages, de souris ou d'humain, sont cultivés dans un milieu de culture SFM ("serum-free medium") optimisé pour la culture des macrophages, commercialisé par la société GibcoBRL, France. L'adhésion des cellules se produit après environ 2 heures de culture à 37°C sous atmosphère à 5 % de CO2. Les cellules n'adhérant pas à la boîte de culture sont éliminées par rinçage au PBS (GibcoBRL, France).
Pour étudier le mécanisme d'ingestion de C. albicans par les macrophages, des levures préalablement marquées par [^3H]uracile sont utilisées. Trois colonies de C. albicans sont dispersées dans 1 ml de bouillon Sabouraud contenant 150 µCi de [^3H]uracile. Après 24 heures de culture à 37°C sous agitation, les blastospores marqués sont centrifugés et resuspendus dans le SFM enrichi avec 1,8 % de glucose. Pour chaque essai, les monocouches de macrophages cultivées sur les plaques 24 puits sont traitées avec les agonistes de PPARγ pendant 20 heures, puis infectées avec C. albicans marqué et viable (dans une proportion macrophages/levures de 1:1) et laissées à incuber pendant 1 heure à 37°C, puis 2 heures à 5°C. Soumis à 5°C, les mécanismes de phagocytose sont bloqués. […]
The subject of test [2] is récepteur mannose. As to the kind of experiment: Mannose receptor expression on macrophages, FITC-mBSA flow cytometry. It counts as cell-based, souris. As to conditions: antagonist 0,1 µM, 24 h; figure 5. As for the experimental part: Pour les essais de cytométrie en flux, les macrophages sont rincés au PBS glacé. Le marquage des MMR est réalisé pendant une heure, dans la glace, à la manière d'un ligand spécifique conjugué avec de l'albumine bovine mannosylée marquée à la fluorescéine FITC (840 nM) (SIGMA, France). Afin de faciliter la sélection des populations de cellules viables, une coloration à l'iodure de propidium est réalisée. Toutes les analyses sont effectuées par le FACScalibur (Becton-Dickinson) en utilisant le logiciel CellQuest.
Dans une deuxième étape, l'induction de l'expression du récepteur mannose des macrophages péritonéaux murins sous l'effet des différents traitements a été étudiée par cytométrie de flux en présence d'un antagoniste irréversible de PPARγ, le GW 9662.
Ces résultats sont confirmés par la figure 5 qui montre que l'augmentation de l'expression du récepteur mannose à la surface des macrophages sous l'effet de la 15d-PGJ2 est antagonisée par le GW 9662.
Pour ce faire, les macrophages ont été traités pendant 3 jours avec l'antisens spécifique de l'ARNm du récepteur mannose (ODN). […] Les cellules ont été ensuite incubées avec la mBSA marquée au FITC, puis analysées par cytométrie en flux. L'intensité de la fluorescence analysée est représentée à la figure 6.

In a further test the test system is C. albicans. As to the kind of experiment: Gastrointestinal candidiasis in mice: number of yeasts in organs by CFU and real-time quantitative PCR. As to conditions: SWISS and RAG-2 mice, oesophage, estomac, caecum, vs untreated mice, figure 10.
Test [3] concerns récepteur mannose. Briefly: Mannose receptor expression on macrophages from mice treated in vivo, flow cytometry. The conditions noted are these: cells from SWISS and RAG-2 mice treated in vivo; figure 8.
Excerpt: (§1) Ces injections ont été renouvelées tous les jours durant 5 jours.
La quantité de molécule de mBSA fixée, reflet direct de la quantité de récepteurs mannose présente sur les cellules, a été analysée à l'aide d'un cytomètre en flux (FACScalibur, Becton Dickinson).
For test [4], the system named is macrophages péritonéaux. Briefly: Phagocytosis of C. albicans by peritoneal macrophages from infected mice treated in vivo. The conditions noted are these: treated i.p. (15d-PGJ2 0,01 µmoles, rosiglitazone 0,1 µmoles), 1 h challenge 1:1.
Description: L'étude in vitro a été réalisée sur des lots de 10 souris, soit immunocompétentes (SWISS) ou immunodéficientes (RAG-2), qui ont été infectées par C. albicans.
Les souris hébergées dans des cages stériles ont été infectées par gavage de 500 µl d'une suspension de levures (2.10^7 cfu.ml^-1).
as §1
Après une incubation de 2 heures à l'étuve à 37°C, 5 % CO2, les cellules non adhérentes ont été éliminées par deux rinçages en PBS.
Afin d'évaluer la capacité des macrophages à phagocyter C. albicans, une technique basée sur l'incorporation de nucléotides radioactifs (Uracile tritié) au niveau de l'ARN des levures en voie de multiplication a été réalisée. Les levures pré-marquées sont déposées sur les tapis macrophagiques et mises à incuber à 37°C sous 5 % CO2. […] Sachant que la radioactivité mesurée dans le lysat est proportionnelle à la quantité de levures phagocytées et que celle mesurée dans les surnageants est proportionnelle à la quantité de levures externes, le pourcentage de levures phagocytées par rapport à la quantité de levures totales sera déterminé selon la formule suivante : %Phagocytose = (dpmlysat)/(dpmlysat + dpmsurnageant) [formula]
A further test concerns cellules RAW 264.7. Briefly: Mannose receptor expression on RAW 264.7 cells transfected with CMV-luciférase or CMV-PPARγ, flow cytometry. As to conditions: 24 h, 1 µM 15d-PGJ2, 5 µM ciglitazone, 5 µM rosiglitazone; for Moyenne géométrique de l'intensité de fluorescence, CMV-PPAR-γ: RAW 264.7 transfected with CMV-PPARγ, control 53,87; for Moyenne géométrique de l'intensité de fluorescence, CMV-LUC: RAW 264.7 transfected with CMV-luciférase, control 47,51. On the technique in general: In flow cytometry, cells or beads pass a laser one at a time.

For test [5], the system named is macrophages. As to the kind of experiment: Production of oxidants by macrophages from mice treated in vivo, chemiluminescence. The arrangement: species or system souris. The conditions noted are these: macrophages from SWISS and RAG-2 mice treated in vivo, vs control mice; figure 7. The text has this:
Afin d'évaluer la production d'agents oxydants (radicaux libres oxygénés et monoxyde d'azote) par les macrophages après la mise en culture des macrophages, les activités conjointes de la NADPH oxydase et de la NOsynthase inductible sont mesurées par chimiluminescence en présence d'une sonde chimiluminogène, Luminol (SIGMA, France) : 5-amino2,3-diydro-1,4-phtalazine-dione. La production de chimiluminescence sera analysée avec un luminomètre (Wallac Victor II, Finlande) piloté par un ordinateur. Le luminol permet, en présence d'agents oxydants, l'émission de photons captés par le photomultiplicateur de la chambre noire du luminomètre thermostaté à 37°C et transformés en impulsions électriques quantifiables. Les valeurs de chimiluminescence seront enregistrées continuellement pendant 1 heure après incubation des cellules avec le luminol ([…]) et en présence ou non de levures.
L'évaluation de la production d'agents oxydants par les macrophages, en présence ou en absence de la levure, a été déterminée sur des macrophages en culture par la technique de chimiluminescence. La figure 7 expose les résultats obtenus, en nombre de coups secondes (C x S) comptabilisés pendant 1 heure, pour chaque test.

The subject of test [6] is macrophages. Briefly: Production of oxidants by cultured macrophages, luminol chemiluminescence. It counts as cell-based, souris. The conditions noted are these: for Production d'agents oxydants, avec ANS / Production d'agents oxydants, avec ODN / Production d'agents oxydants, sans antisens: 1 h; for Production d'agents oxydants, avec ANS: macrophages incubated 3 days with non-specific antisense ANS, control 6972 ± 90; for Production d'agents oxydants, avec ODN: macrophages incubated 3 days with specific antisense ODN, control 6795 ± 178; for Production d'agents oxydants, sans antisens: without antisense, control 6737 ± 139. As for the experimental part:
Concernant le traitement à l'antisens ODN, une séquence complémentaire à la région 3' non traduite de l'ARNm du MMR (Yamamoto et al., Infect Immun, 1997, 65:1077-82), on incube l'antisens ODN (100 nM) avec 10 µg de lipide cationique Lipofectin (GIBCO, France) à 37°C pendant 5 min selon la méthode Capacciolis et al. (Biochem Biophys Res Commun, 1998, 197:818-25) puis on l'ajoute aux macrophages cultivés dans le DMEM sans sérum. Les cellules sont incubées pendant 4 heures à 37°C avec 5 % de CO2 atmosphérique. Le milieu est remplacé par du SFM contenant l'antisens ODN mais sans Lipofectin. Les cultures sont incubées pendant 3 jours avec un changement journalier du milieu. La concentration de l'antisens ODN utilisée n'entraîne aucune toxicité significative sur les macrophages. Les macrophages non traités et les macrophages traités avec la Lipofectin seule servent de contrôle. La séquence nucléique de l'antisens ODN est exposée dans le tableau 2. Le même traitement est réalisé avec un antisens non spécifique de l'ARNm du MMR, l'antisens ANS dont la séquence nucléique est exposée dans le tableau 2.
Pour les tests de production d'agents oxydants, l'explosion respiratoire oxygène-dépendante des macrophages traités par les agonistes de PPARγ est mesurée par chimiluminescence. Les macrophages (2.10^5) sont transférés sur des boîtes de culture de 5 mm de diamètre. Après activation des cellules, la production d'agents oxydants par les macrophages, en présence ou en absence de C. albicans, est mesurée par chimiluminescence en présence de luminol à 37°C. L'émission de chimiluminescence est enregistrée en continu pendant 1 heure après incubation des cellules avec le luminol (66 µM). Pour évaluer la production de l'anion superoxyde (O2^-), la chimiluminescence est mesurée en présence de SOD, un inhibiteur spécifique de la production d'anion superoxyde. Pour évaluer la production d'oxyde nitrique (NO), la chimiluminescence est mesurée en présence de la L-NMMA (NG-monométhyl-arginine, un compétiteur spécifique de la L-arginine pour la production de NO). Aucun des inhibiteurs n'affecte la viabilité aux concentrations utilisées.
Les analyses statistiques se basent sur la mesure de la surface sous la courbe et sont exprimées en coups x secondes.
La capacité des macrophages à produire de l'anion superoxyde et du monoxyde d'azote et leur modulation par la 15d-PGJ2 ont été également étudiées par la méthode de chimiluminescence qui permet d'évaluer non seulement la production d'anions superoxydes mais aussi celle du peroxynitrite produit au cours de l'interaction entre le monoxyde d'azote et l'anion superoxyde.
Afin d'évaluer la production d'anion superoxyde, la chimiluminescence a été mesurée- en présence ou non de SOD (enzyme métabolisant O2^- en H2O2) alors que la production de monoxyde d'azote est évaluée en présence d'un compétiteur de l'arginine qui est la L-NMMA. Tableau 3 : Effet des ligands agonistes de PPARγ sur la production d'agents oxydants par les macrophages en présence ou en absence de levure. L'évaluation de la production d'agents oxydants a été déterminée sur des macrophages en culture par la technique de chimiluminescence.
Cette étude a été réalisée afin de déterminer si l'augmentation de la production d'agents oxydants sous l'effet des agonistes de PPARγ dépendait ou non de la modulation des récepteurs mannose par ces différents traitements. Dans cet objectif, la modulation de la production d'agents oxydants par les macrophages transfectés par l'antisens spécifique des ARNm des récepteurs mannose a été étudiée. Après traitement avec les agonistes de PPARγ, le dosage de la quantité d'agents oxydants produits par les macrophages transfectés a été réalisé par chimiluminescence. Les résultats sont présentés dans le tableau 5. Tableau 5 : Implication du récepteur mannose dans la production d'agents oxydants des macrophages traités par les ligands de PPARγ. […]

As for `O=C(Nc1ccccc1)c1cc([N+](=O)[O-])ccc1Cl` [GW 9662], in the test with macrophages péritonéaux [1], the “augmentation de la capacité de phagocytose des macrophages traités par les agonistes de PPARγ” value was “inhibée”. In addition, the “augmentation de l'expression du récepteur mannose à la surface des macrophages sous l'effet de la 15d-PGJ2” value in the test with récepteur mannose [2] is given as “antagonisée”.
For `CCCCCC=CC=C1C(=O)C=CC1CC=CCCCC(=O)O` (centres unmarked) [15d-PGJ2, 15-déoxy-Δ^12,14-prostaglandine J2], the “colonisation des différents organes (nombre de levures)” value in the test on C. albicans is “diminution significative de la colonisation”. Also, in the test with récepteur mannose [3], the “quantité d'albumine bovine mannosylée marquée à la fluorescéine présente sur les macrophages” value is given as “significativement augmentée”. The “Index de phagocytose, RAG-2” value in the test on macrophages péritonéaux [4] (RAG-2 mice infected with C. albicans, control 59,82 ± 2,43) was 76,32 ± 1,89. In the test on macrophages péritonéaux [4] (SWISS mice infected with C. albicans, control 42,97 ± 1,20), the “Index de phagocytose, SWISS” value was 65,26 ± 2,11. Moreover, in the test with cellules RAW 264.7, the “Moyenne géométrique de l'intensité de fluorescence, CMV-PPAR-γ” value was 73 and the “Moyenne géométrique de l'intensité de fluorescence, CMV-LUC” value is on record as 44,29. The “production basale d'agents oxydants par les macrophages” value with macrophages [5] is “la même quantité basale d'agents oxydants”. Further, in the test with macrophages [6], the “Production d'agents oxydants, avec ANS” value is 9678 ± 106 coups x secondes; the “Production d'agents oxydants, avec ODN” value stood at 7012 ± 98 coups x secondes; the “Production d'agents oxydants, sans antisens” value is 9161 ± 85 coups x secondes. Moreover, in the test with macrophages [6] (with yeast, in presence of L-NMMA), the “Production d'agents oxydants pendant 1 heure, + Levures L-NMMA” value amounted to 14258 ± 216 coups x secondes. The “Production d'agents oxydants pendant 1 heure, + Levures SOD” value in the test on macrophages [6] (with yeast, in presence of SOD) is on record as 7228 ± 212 coups x secondes. For the same compound, the “Production d'agents oxydants pendant 1 heure, + Levures” value in the test with macrophages [6] (with yeast, no inhibitor) amounted to 13905 ± 328 coups x secondes. Besides, the “Production d'agents oxydants pendant 1 heure, - Levure” value in the test with macrophages [6] (without yeast) worked out at 7469 ± 238 coups x secondes.
For the compound `CC1(COc2ccc(CC3SC(=O)NC3=O)cc2)CCCCC1` (centres unmarked) [ciglitazone], in the test on cellules RAW 264.7, the “Moyenne géométrique de l'intensité de fluorescence, CMV-PPAR-γ” value is listed as 64,3 and the “Moyenne géométrique de l'intensité de fluorescence, CMV-LUC” value is recorded as 38,51. Moreover, in the test on macrophages [6], the “Production d'agents oxydants, avec ANS” value stood at 8322 ± 183 coups x secondes; the “Production d'agents oxydants, avec ODN” value was found to be 7109 ± 155 coups x secondes; the “Production d'agents oxydants, sans antisens” value was found to be 8398 ± 104 coups x secondes.
As to `CN(CCOc1ccc(CC2SC(=O)NC2=O)cc1)c1ccccn1` (centres unmarked) [rosiglitazone], in the test on cellules RAW 264.7, the “Moyenne géométrique de l'intensité de fluorescence, CMV-PPAR-γ” value is 61,51 and the “Moyenne géométrique de l'intensité de fluorescence, CMV-LUC” value is 37,94. Also, in the test with macrophages [6], the “Production d'agents oxydants, avec ANS” value was found to be 8813 ± 190 coups x secondes; the “Production d'agents oxydants, avec ODN” value turned out to be 7197 ± 77 coups x secondes; the “Production d'agents oxydants, sans antisens” value came to 8960 ± 179 coups x secondes.
